Assay results: ChEMBL document CHEMBL1145701, “Spinonin, a novel glycoside from Ononis spinosa subsp. leiosperma” (1997)
Converted amounts (≈) assume the structure as drawn. The source made the active and inactive calls. No cut-off for these calls is given here.

What was measured:
Pseudomonas aeruginosa = assay: Antimicrobial activity against Pseudomonas aeruginosa ATCC 9027 by paper-disk diffusion method; type: functional
Streptococcus = assay: Antimicrobial activity against beta-hemolytic Streptococcus isolate 48 by paper-disk diffusion method; type: functional
BC1 = assay: Cytotoxicity against human BC1 cells; type: functional, cell-based
Lu1 = assay: Cytotoxicity against human Lu1 cells; type: functional, cell-based
[1] = molecular target: Human immunodeficiency virus type 1 reverse transcriptase (Human immunodeficiency virus 1) (UniProt Q72547); assay: Inhibition of HIV1 reverse transcriptase
SK-N-SH = assay: Cytotoxicity against human SK-N-SH cells […]; type: functional, cell-based
KBVIN = assay: Cytotoxicity against human KBVIN cells in presence of vinblastine; type: functional, cell-based

| MIC (Pseudomonas aeruginosa) | Activity [1] | Compound | MIC (Streptococcus) | Activity (BC1) | Activity (Lu1) | Activity (SK-N-SH) | Activity (KBVIN) |
| --- | --- | --- | --- | --- | --- | --- | --- |
| 200 µg/mL (≈ 463 µM) | – | COc1ccc2c(c1)O[C@H]1c3ccc(O[C@@H]4O[C@H](CO)[C@@H](O)[C@H](O)[C@H]4O)cc3OC[C@@H]21 | – | – | – | – | – |
| – | – | COc1ccc(-c2coc3cc(O[C@@H]4O[C@H](CO)[C@@H](O)[C@H](O)[C@H]4O)ccc3c2=O)cc1 [ONONIN] | 25 µg/mL (≈ 58.1 µM) | – | – | – | – |
| 200 µg/mL (≈ 434 µM) | inactive | O=C1C=C(c2ccc(O)cc2O[C@@H]2O[C@H](CO)[C@@H](O)[C@H](O)[C@H]2O)O[C@@H]1Cc1ccc(O)cc1 [SPINONIN] | – | inactive | inactive | inactive | inactive |
